Data on five compounds can be found in ChEMBL document CHEMBL4270488, “Antibacterial Compounds from Marine Bacteria, 2010-2015” (J Nat Prod, 2017).

Assay [1] concerns Mycobacterium tuberculosis variant bovis. As to the kind of experiment: Antibacterial activity against Mycobacterium bovis BCG str. Pasteur 1173P2 incubated for 16 hrs. Format: functional.
Assay [2] has the same test system. As to the kind of experiment: Antibacterial activity against Mycobacterium bovis BCG str. Pasteur 1173P2 incubated for 3 days by GFP based fluorescence assay. The assay is classed as functional. The following applies: 72 h.

SMILES strings stand for the structures. Values after ≈ are worked out from the molar mass of the structure shown. *1 amine or outer side, *2 acyl side, *3 side chain or, on linkers, in order; H or OH if unused. Where a SMILES comes first, the peptide text is derived from it. Bridges are numbered along the chain shown (N, C = ends). Roman numbers before positions name the chains, in order. [ ]: non-standard residue; d: D form. Actinocin(1to9) = Cc1c2oc3c(C)ccc(C(=O)[*:2])c3nc-2c(C(=O)[*:1])c(N)c1=O; Pro(4-oxo) = O=C1CN[C@H](C(=O)O)C1; NMeV = CN[C@H](C(=O)O)C(C)C; Sar = CNCC(=O)O

The MIC is the lowest concentration that inhibits growth of the organism.

In assay [1], `COC(=O)N[C@H]1[C@@H](C)O[C@@H](O[C@H]2C/C=C(\C)[C@@H]3C=C[C@@H]4[C@@H](O[C@H]5C[C@@H](O[C@H]6C[C@@H](O)[C@@H](O[C@@H]7C[C@@H](O)[C@@H](OC)[C@H](C)O7)[C@H](C)O6)[C@@H](O)[C@H](C)O5)[C@@H](C)C[C@H](C)[C@H]4[C@]3(C)C(=O)C3=C(O)[C@@]4(C[C@@H](C)C(CO)=C[C@H]4/C=C/2C)OC3=O)C[C@]1(C)N` displayed an MIC of 0.8 to 1.5 µg/mL (≈ 0.691 to 1.3 µM). Take `Cc1c2oc3c(C)ccc(C(=O)N[C@@H]4C(=O)N[C@H](C(C)C)C(=O)N5CCC[C@H]5C(=O)N(C)CC(=O)N(C)[C@@H](C(C)C)C(=O)O[C@@H]4C)c3nc-2c(C(=O)N[C@@H]2C(=O)N[C@H](C(C)C)C(=O)N3CCC[C@H]3C(=O)N(C)CC(=O)N(C)[C@@H](C(C)C)C(=O)O[C@@H]2C)c(N)c1=O` [DACTINOMYCIN] (I: T[dV]P[Sar][NMeV] / II: T[dV]P[Sar][NMeV]; ester I:1-I:C, II:1-II:C; linker I:N-II:N via Actinocin(1to9)): in assay [2], the MIC was in the range of 0.2 to 0.5 µg/mL (≈ 0.159 to 0.398 µM). Consider `COC(=O)N[C@H]1[C@@H](C)O[C@@H](O[C@H]2C/C=C(\C)[C@@H]3C=C[C@@H]4[C@@H](O[C@H]5C[C@@H](O[C@H]6C[C@@H](O)[C@@H](O[C@@H]7C[C@@H](O)[C@@H](OC)[C@H](C)O7)[C@H](C)O6)[C@@H](O)[C@H](C)O5)[C@@H](C)C[C@H](C)[C@H]4[C@]3(C)C(=O)C3=C(O)[C@@]4(C[C@@H](C)C(CO)=C[C@H]4/C=C/2C)OC3=O)C[C@]1(C)[N+](=O)[O-]`, for which, in assay [1], the MIC fell in the range of 0.8 to 1.5 µg/mL (≈ 0.674 to 1.26 µM). With `Cc1c2oc3c(C)ccc(C(=O)N[C@@H]4C(=O)N[C@H](C(C)C)C(=O)N5CCC[C@H]5C(=O)N(C)CC(=O)N(C)[C@@H](C(C)C)C(=O)O[C@@H]4C)c3nc-2c(C(=O)N[C@@H]2C(=O)N[C@H](C(C)C)C(=O)N3CC(=O)C[C@H]3C(=O)N(C)CC(=O)N(C)[C@@H](C(C)C)C(=O)O[C@@H]2C)c(N)c1=O` (I: T[dV][Pro(4-oxo)][Sar][NMeV] / II: T[dV]P[Sar][NMeV]; ester I:1-I:C, II:1-II:C; linker I:N-II:N via Actinocin(1to9)), in assay [2], the MIC lay in the range of 0.2 to 0.5 µg/mL (≈ 0.158 to 0.394 µM). Same read-out and setting: the result for `Cc1c2oc3c(C)ccc(C(=O)N[C@@H]4C(=O)N[C@H](C(C)C)C(=O)N5CCC[C@H]5C(=O)N(C)CC(=O)N(C)[C@@H](C(C)C)C(=O)O[C@@H]4C)c3nc-2c(C(=O)N[C@@H]2C(=O)N[C@H](C(C)C)C(=O)N3CC(O)C[C@H]3C(=O)N(C)CC(=O)N(C)[C@@H](C(C)C)C(=O)O[C@@H]2C)c(N)c1=O` (stereo not given in full) reads 0.2 to 0.5 µg/mL (≈ 0.157 to 0.393 µM).
